Experimental data from PMC7248194, “Cell-Based Radiotracer Binding and Uptake Inhibition Assays: A Comparison of In Vitro Methods to Assess the Potency of Drugs That Target Monoamine Transporters” (Frontiers in Pharmacology, 2020).

Key:
rSERT [1] = molecular target: T1, rSERT (Rattus norvegicus, UniProt P31652); assay: saturation uptake, adherent HEK […] cells; format: cell-based; conditions: cell line 3; labelled compound, 200 nM [3H]-5-HT diluted with unlabelled; KHB pH 7.3, room temperature, 1 min; read-out: Km ± SD
T1 construct: gene Slc6a4; full-length, stably expressed in HEK 293 cells (Vienna, 'cell line 3')
T1 sequence (P31652 whole entry): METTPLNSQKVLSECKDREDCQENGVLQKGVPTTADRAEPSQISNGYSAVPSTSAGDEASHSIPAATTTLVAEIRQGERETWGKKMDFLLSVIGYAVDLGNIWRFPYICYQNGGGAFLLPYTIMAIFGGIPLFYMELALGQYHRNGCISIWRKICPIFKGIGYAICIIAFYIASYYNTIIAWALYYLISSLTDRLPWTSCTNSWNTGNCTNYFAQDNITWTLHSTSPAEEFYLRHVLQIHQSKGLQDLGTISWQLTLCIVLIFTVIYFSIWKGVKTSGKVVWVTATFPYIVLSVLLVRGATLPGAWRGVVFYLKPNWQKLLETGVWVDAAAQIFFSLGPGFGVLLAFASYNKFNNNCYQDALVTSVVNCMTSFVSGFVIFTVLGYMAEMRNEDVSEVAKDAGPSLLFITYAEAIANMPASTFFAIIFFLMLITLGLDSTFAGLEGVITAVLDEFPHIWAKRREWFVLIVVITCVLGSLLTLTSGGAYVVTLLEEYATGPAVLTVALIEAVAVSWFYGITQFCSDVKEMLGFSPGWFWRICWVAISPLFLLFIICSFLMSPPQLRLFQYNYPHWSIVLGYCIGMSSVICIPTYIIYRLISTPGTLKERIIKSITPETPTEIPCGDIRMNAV

rSERT [2] = molecular target: T1, rSERT; assay: [3H]-CFT saturation binding, adherent HEK […] cells; format: cell-based; conditions: read-out: Kd ± SD
hSERT = molecular target: T2, hSERT (Homo sapiens, UniProt P31645); assay: [3H]-CFT saturation binding, adherent HEK […] cells; format: cell-based; conditions: read-out: Kd ± SD
T2 construct: gene SLC6A4; full-length, stably expressed in HEK 293 cells (Basel, 'cell line 2')
T2 sequence (P31645 whole entry): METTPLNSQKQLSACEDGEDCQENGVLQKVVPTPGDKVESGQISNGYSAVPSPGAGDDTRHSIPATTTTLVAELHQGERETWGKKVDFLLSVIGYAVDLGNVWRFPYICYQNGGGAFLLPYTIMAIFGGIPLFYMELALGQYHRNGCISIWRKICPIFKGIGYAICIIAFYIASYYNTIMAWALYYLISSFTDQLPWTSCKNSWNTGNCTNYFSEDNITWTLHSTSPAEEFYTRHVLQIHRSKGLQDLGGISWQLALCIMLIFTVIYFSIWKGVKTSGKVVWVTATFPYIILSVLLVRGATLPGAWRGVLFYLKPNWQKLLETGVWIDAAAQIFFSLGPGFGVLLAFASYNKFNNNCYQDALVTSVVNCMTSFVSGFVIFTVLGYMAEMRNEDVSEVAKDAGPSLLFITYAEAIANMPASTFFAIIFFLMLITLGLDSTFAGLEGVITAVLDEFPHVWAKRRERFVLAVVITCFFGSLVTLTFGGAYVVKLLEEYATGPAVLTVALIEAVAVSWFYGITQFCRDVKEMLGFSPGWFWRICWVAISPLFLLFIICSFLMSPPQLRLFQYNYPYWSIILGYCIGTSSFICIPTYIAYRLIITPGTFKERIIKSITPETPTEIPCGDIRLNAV

hNET = molecular target: T3, hNET (Homo sapiens, UniProt P23975); assay: [3H]-CFT saturation binding, adherent HEK […] cells; format: cell-based; conditions: read-out: Kd ± SD
T3 construct: gene SLC6A2; full-length, stably expressed in HEK 293 cells (Basel, 'cell line 2')
T3 sequence (P23975 whole entry): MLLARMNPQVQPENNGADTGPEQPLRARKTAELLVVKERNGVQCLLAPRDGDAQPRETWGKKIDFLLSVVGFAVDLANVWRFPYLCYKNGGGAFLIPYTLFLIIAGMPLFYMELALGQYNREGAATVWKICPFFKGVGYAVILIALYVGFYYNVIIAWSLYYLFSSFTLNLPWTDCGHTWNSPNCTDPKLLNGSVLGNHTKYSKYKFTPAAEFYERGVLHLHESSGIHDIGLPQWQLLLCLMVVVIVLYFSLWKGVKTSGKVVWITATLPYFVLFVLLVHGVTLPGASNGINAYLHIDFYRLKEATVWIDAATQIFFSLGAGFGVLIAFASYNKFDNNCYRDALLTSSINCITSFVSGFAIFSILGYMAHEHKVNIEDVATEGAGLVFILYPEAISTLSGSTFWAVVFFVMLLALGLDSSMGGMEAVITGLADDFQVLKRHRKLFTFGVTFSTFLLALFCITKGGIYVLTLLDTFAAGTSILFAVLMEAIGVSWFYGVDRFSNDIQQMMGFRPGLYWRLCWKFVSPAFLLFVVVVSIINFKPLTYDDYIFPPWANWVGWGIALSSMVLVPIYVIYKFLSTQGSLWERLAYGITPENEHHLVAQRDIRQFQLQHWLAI

rNET = molecular target: T4, rNET (Rattus norvegicus, UniProt Q63380); assay: [3H]-CFT saturation binding, adherent HEK […] cells; format: cell-based; conditions: read-out: Kd ± SD
T4 construct: gene Slc6a2; full-length, stably expressed in HEK 293 cells (Vienna, 'cell line 3')
T4 sequence (Q63380 1-617): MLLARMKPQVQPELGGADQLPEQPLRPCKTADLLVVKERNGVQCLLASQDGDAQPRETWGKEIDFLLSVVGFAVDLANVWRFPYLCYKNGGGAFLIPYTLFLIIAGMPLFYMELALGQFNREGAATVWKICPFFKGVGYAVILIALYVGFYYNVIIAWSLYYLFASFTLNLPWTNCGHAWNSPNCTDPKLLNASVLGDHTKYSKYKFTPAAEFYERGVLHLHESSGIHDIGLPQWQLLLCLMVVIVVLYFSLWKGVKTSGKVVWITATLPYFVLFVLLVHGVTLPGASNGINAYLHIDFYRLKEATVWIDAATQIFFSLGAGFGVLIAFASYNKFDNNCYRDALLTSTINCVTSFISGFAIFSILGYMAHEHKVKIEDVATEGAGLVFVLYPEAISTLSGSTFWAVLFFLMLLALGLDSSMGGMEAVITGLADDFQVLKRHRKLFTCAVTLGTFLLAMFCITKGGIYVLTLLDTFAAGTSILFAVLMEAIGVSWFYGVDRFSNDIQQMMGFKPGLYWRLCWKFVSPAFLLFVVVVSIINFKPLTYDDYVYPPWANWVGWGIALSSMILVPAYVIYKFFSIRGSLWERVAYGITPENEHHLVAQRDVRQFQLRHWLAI

NCCc1c[nH]c2ccc(O)cc12 = tested on: T5, NCCc1c[nH]c2ccc(O)cc12; assay: cells, lysate or membranes; format: cell-based, Homo sapiens; conditions: cell line 2, labelled compound, 200 nM [3H]-5-HT diluted with unlabelled, KHB pH 7.3, room temperature, 1 min
T5 construct: full-length, stably expressed in HEK 293 cells (Basel, 'cell line 2')

[3] = substrate: NCCc1ccc(O)c(O)c1; assay: cells, lysate or membranes; conditions: cell line 2, labelled compound, 200 nM [3H]-dopamine diluted with unlabelled, KHB pH 7.3, room temperature, 1 min
[4] = substrate: NCCc1ccc(O)c(O)c1; assay: cells, lysate or membranes; format: cell-based, Rattus norvegicus; conditions: cell line 3, labelled compound, 200 nM [3H]-dopamine diluted with unlabelled, KHB pH 7.3, room temperature, 1 min

## NCCc1c[nH]c2ccc(O)cc12 [5-HT]
rSERT [1]
  Km: 3.4 ± 1.5 µM

## COC(=O)[C@H]1[C@@H](c2ccc(F)cc2)C[C@@H]2CC[C@H]1N2C [CFT, 2-β-carbomethoxy-3-β-(4-fluorophenyl)tropane]
rSERT [2]
  Kd: 1130 ± 70 nM
hSERT
  Kd: 1200 ± 400 nM
hNET
  Kd: 70 ± 20 nM
rNET
  Kd: 130 ± 70 nM

## hSERT (Homo sapiens)
NCCc1c[nH]c2ccc(O)cc12
  Km: 4.1 ± 1.0 µM

B1: hDAT (Homo sapiens) (protein)
chain: MSKSKCSVGLMSSVVAPAKEPNAVGPKEVELILVKEQNGVQLTSSTLTNPRQSPVEAQDRETWGKKIDFLLSVIGFAVDLANVWRFPYLCYKNGGGAFLVPYLLFMVIAGMPLFYMELALGQFNREGAAGVWKICPILKGVGFTVILISLYVGFFYNVIIAWALHYLFSSFTTELPWIHCNNSWNSPNCSDAHPGDSSGDSSGLNDTFGTTPAAEYFERGVLHLHQSHGIDDLGPPRWQLTACLVLVIVLLYFSLWKGVKTSGKVVWITATMPYVVLTALLLRGVTLPGAIDGIRAYLSVDFYRLCEASVWIDAATQVCFSLGVGFGVLIAFSSYNKFTNNCYRDAIVTTSINSLTSFSSGFVVFSFLGYMAQKHSVPIGDVAKDGPGLIFIIYPEAIATLPLSSAWAVVFFIMLLTLGIDSAMGGMESVITGLIDEFQLLHRHRELFTLFIVLATFLLSLFCVTNGGIYVFTLLDHFAAGTSILFGVLIEAIGVAWFYGVGQFSDDIQQMTGQRPSLYWRLCWKLVSPCFLLFVVVVSIVTFRPPHYGAYIFPDWANALGWVIATSSMAMVPIYAAYKFCSLPGSFREKLAYAIAPEKDRELVDRGEVRQFTLRHWLKV
[3]
  Km: 5.5 ± 0.8 µM

B2: rDAT (Rattus norvegicus) (protein)
chain: MSKSKCSVGPMSSVVAPAKESNAVGPREVELILVKEQNGVQLTNSTLINPPQTPVEAQERETWSKKIDFLLSVIGFAVDLANVWRFPYLCYKNGGGAFLVPYLLFMVIAGMPLFYMELALGQFNREGAAGVWKICPVLKGVGFTVILISFYVGFFYNVIIAWALHYFFSSFTMDLPWIHCNNTWNSPNCSDAHASNSSDGLGLNDTFGTTPAAEYFERGVLHLHQSRGIDDLGPPRWQLTACLVLVIVLLYFSLWKGVKTSGKVVWITATMPYVVLTALLLRGVTLPGAMDGIRAYLSVDFYRLCEASVWIDAATQVCFSLGVGFGVLIAFSSYNKFTNNCYRDAIITTSINSLTSFSSGFVVFSFLGYMAQKHNVPIRDVATDGPGLIFIIYPEAIATLPLSSAWAAVFFLMLLTLGIDSAMGGMESVITGLVDEFQLLHRHRELFTLGIVLATFLLSLFCVTNGGIYVFTLLDHFAAGTSILFGVLIEAIGVAWFYGVQQFSDDIKQMTGQRPNLYWRLCWKLVSPCFLLYVVVVSIVTFRPPHYGAYIFPDWANALGWIIATSSMAMVPIYATYKFCSLPGSFREKLAYAITPEKDHQLVDRGEVRQFTLRHWLLL
notes: full-length, stably expressed in HEK 293 cells (Vienna, 'cell line 3')
[4]
  Km: 8.8 ± 3.9 µM
